Patent US20240141020A1, “METHOD FOR MODULATING AFUCOSLYATION OF AN ANTIBODY PRODUCT” (LONZA BEND INC., priority 2021, published 2024)

Tested on: CHO GS-KO cells
Experiment: Modulation of afucosylation of a model IgG antibody produced by CHO GS-KO cells in supplemented culture medium (shake flasks, 5 days, LC-MS glycan profile)
Type: cell-based, Chinese hamster
Settings: for Average % Afucosylation: mAb harvested day 5, G0/(G0F+G0), n = 3 technical replicates, control 5.21%
Method: CHO GS-KO cells were cultured in chemically defined culture medium supplemented with different chemicals at different concentrations to test the impact of those chemicals on the N-linked glycan profile of the product produced by the cultures. The product produced by this cell line was a model IgG antibody. • 1. Prepare culture media with supplemented chemicals • 2. Culture cells in media from (1) • 3. Harvest mAb produced in cultures and measure glycan profile of purified, reduced, and de-salted mAb products • 4. Determine statistical impact of chemical supplements on glycan product quality The chemicals that were supplemented to the medium included: • None (Control) • Mannose • N-Acetylmannosamine (ManNAc)+Galactose Concentrated stock solutions of mannose, ManNAc, and galactose were prepared and added into culture media. Specific volumes of the stock solution was supplemented to the culture media to generate the conditions in Table 1: GS-KO cells were inoculated at a density of 2×10^5 cells/mL into vented shake flasks containing medium from Table 1. Cultures were grown for five days in a temperature, CO2, and humidity-controlled incubator. Daily samples were taken to monitor the culture health. mAb product was harvested from day 5 shake flask cultures and purified through Protein A capture. Purified mAb was prepared for glycan analysis by reducing mAb to separate heavy and light chains. Reduced mAb was injected onto an LC-MS where the reduced mAb was de-salted by passing through a reverse-phase de-salting column on the LC prior to injection into a time of flight mass spectrometer (TOF MS) (Agilent 6230B). Three injections per sample was performed for technical replicates. Protein Metrics Software was used to process the resulting LC-MS data and the relative abundance of each glycan species was reported. The glycan species measured in processing included: G0, G0F, G1F, G2F, G1F+NeuAc, […]+NeuAc, […]+2NeuAc. Percent afucosulated mAb was calculated by dividing the total amount of afucosylated species by the sum of afucosylate and fucosylated species (G0/[…]+G0).

Compound | afucosylation compared to control (in words) (higher concentration of ManNAc (10 uM), with 1 mM galactose) | Average % Afucosylation (culture medium + 1 g/L Mannose) | Average % Afucosylation (culture medium + 3 g/L Mannose) | Average % Afucosylation (culture medium + 6 g/L Mannose) | high mannose species of the antibody product (in words) (mannose in amounts greater than about 1 g/L) | % afucosylated mAb compared to control (in words) (supplementation of culture medium with mannose, 1, 3, 6 g/L)
CC(=O)N[C@@H]1C(O)O[C@H](CO)[C@@H](O)[C@@H]1O (stereo partly drawn) [ManNAc, N-Acetylmannosamine] | decreasing afucosylation slightly |  |  |  |  | 
O=C[C@@H](O)[C@@H](O)[C@H](O)[C@H](O)CO [Mannose, mannose] |  | 5.63% | 6.10% | 7.27% | does not appear to result in an increase in high mannose species | significantly increased
